This is an account of results in article PMC5025856, “A Novel Assay for Screening Inhibitors Targeting HIV Integrase LEDGF/p75 Interaction Based on Ni^2+ Coated Magnetic Agarose Beads” (Scientific Reports, 2016).

A word on the IC50: it is the concentration that inhibits the measured activity by half. For orientation: Kd means the equilibrium constant for the complex coming apart.

Read-outs that look alike come from different tables or passages of the source.

The target in one assay is T1, His6-tagged GST protein (Schistosoma japonicum, UniProt P08515).
T1 construct: made in house; host or cells: bacterial expression vector pGEX-4T-1
Nature of the assay: Non-specificity counterscreen with His6-GST protein. To be noted: dose-response, 10 nM His6-tagged GST protein. As for the experimental part: The false positive compound identified in this HTS may affect the assay by forming hydrogen bonds interaction with His6-tag of IN CCD or forming chelating complexes with Ni^2+-ion covering magnetic beads surface. […] Any compound that interfered with bead or with the His6-tag of double-tagged protein would result in a decreased signal in the counterscreen assay.
A counterscreen was carried out as described above, with the replacement of purified HIV-1 IN CCD and LEDGF/p75 IBD with 10 nM His6-tagged GST protein.
(Counterscreens check selectivity or assay interference.)

A further assay has as its system cancer xenograft models. Also on record: method as in PMID 25093583. The note with it: primary screen hit in cancer xenograft models; cited from earlier work.
For assay [1], the target named is T2, PPI between HIV-1 IN CCD and LEDGF/p75 IBD (Homo sapiens, UniProt O75475).
T2 construct: The IN CCD protein used contained HIV IN residues 50–212 fused with an C-terminal His6-tag; a fusion of LEDGF/p75 residues 347–471 with the N-terminal GST-tag; made in house; host or cells: bacterial expression vectors pET28a (IN CCD) and pGEX-4T-1 (IBD)
Nature of the assay: IN CCD-LEDGF/p75 IBD PPI assay based on Ni-NTA magnetic agarose beads. Type of assay: binding. The procedure: In the assay, GST–tagged LEDGF/p75 IBD (yellow) is mixed with His6-tagged IN CCD (green) at the desired concentrations. After incubation at room temperature, a double-tagged PPI complex with N-terminal GST-tag and C-terminal His6-tag is established between two protein partners. The PPI complex is captured by Ni^2+-coated magnetic beads (red) through His6-tag, followed by the addition of alkaline phosphatase conjugated anti-GST antibody (dark red). Therefore, the product could be measured by the alkaline phosphatase conjugated-coupled enzyme reaction (Fig. 1A).
The IN CCD-LEDGF/p75 IBD interaction assay was developed based on Ni-NTA Magnetic Agarose Beads (BEAVER Nano-technologies Co., Ltd. Suzhou, China). The assay was optimized for use in 96-well nonbinding surface microplates (Corning, New York, USA) in a final volume of 100 μl per well. Briefly, the assay works as follows. Compounds and proteins were diluted to 10× and 5× working solutions in the 1× assay buffer (25 mM Tris-HCl, pH 7.4, 150 mM NaCl, 1 mM MgCl2, 0.05% BSA[v/w]) respectively. Firstly, 10 μl compound dilution, 50 μl 1× buffer, 20 μl each of protein dilutions were pipetted into the wells. The plate was sealed and left to incubate at 200 rpm for 3 h at RT. Secondly, 10 μl of Ni-NTA Magnetic Agarose Beads were added followed by incubating at 900 rpm for 30 min at RT. Thirdly, the wells holding the mixture were placed on a magnetic concentrator, the supernatant was discarded, and the wells were washed 3 times with 200 μl wash buffer (50 mM sodium phosphate, pH 7.4, 150 mM NaCl, 0.005% tween-20[v/v], 20 mM imidazole). Fourthly, the wells were incubated with 100 μl of a 1:4000 solution of mouse anti-GST antibody (Sigma, USA) in antibody dilution buffer (50 mM Sodium Phosphate, pH 7.4, 150 mM NaCl, 0.005% Tween-20[v/v], 0.5%[w/v] BSA) at 900 rpm for 30 min at 37 °C, followed by washing three times. Fifthly, the wells were incubated with 100 μl of a 1:5000 solution of rabbit anti-mouse IgG alkaline phosphatase conjugated antibody (Sigma, USA) in antibody dilution buffer at 900 rpm for 30 min at 37 °C, followed by washing 3 times. Lastly, the color reaction was developed with 100 μl substrate buffer (10 mM diethanolamine, pH 9.8, 0.5 mM MgCl2, 8 mM p-NPP) for 30 min at 37 °C. The absorbance ([…]) of each well was measured in an Enspire multimode reader (PerkinElmer, USA). The reproducibility, signal stability, and robustness of this PPI assay were determined to ensure its compatible for HTS. Furthermore, IL23, an IN CCD-LEDGF/p75 IBD PPI inhibitor, was used to validate the assay efficiency.
In total, 1000 compounds selected at random from ‘The Spectrum Collection’ were purchased from National compound resource center. The library, which is composed of 2,320 compounds in 10 mM DMSO solution, lists primarily FDA-approved human therapeutic drugs, drug-like compounds, and natural products. Each compound was diluted in DMSO to reach a concentration of 300 μM, which was used as the 10× compound stock. In all screening campaigns, the negative control was based on the use of PPI binding mutant controls (single-point mutation) that would prevent the PPI from forming, and the positive control contained 10% (v/v) DMSO only. The negative and positive control with 8 replicates wells each located randomly among the 96 wells of each plate.
The z′ factor, signal-to-noise ratio (S/N), signal-to-background ratio (S/B), signal window (SW), and coefficient of variation (CV) were calculated and then compared with the minimum pass criteria (z′ >0.5, S/N>10, S/B > 3, SW >2, CV < 20%)[39][40][41][42]. The “hits” for PPI assays were classified as compounds that led to more than 60% disruption of a PPI complex. All HTS data were processed using Excel (Microsoft Corp.) and visualized using Prism 5.0 (GraphPad Software).

Another assay deals with LEDGF/p75 (Homo sapiens, UniProt O75475). Nature of the assay: Biolayer interferometry (BLI) binding to LEDGF/p75. The note with it: ForteBIO Octet, 1:1 Langmuir global fit, read-out: dissociation constant Kd. The procedure:
Biolayer interferometry (BLI) was used to study the kinetics of dexlansoprazole binding to LEDGF/p75 on a ForteBio Octet, according to the manufacturer’s instructions and published methods. Streptavidin biosensors tips were pre-wetted with buffer and immobilized with biotinylated protein. The biosensors were then transferred into wells containing dexlansoprazole in serial dilutions from 32 μM to 1 μM concentrations. Protein–ligand binding was measured by monitoring the changes in the interferometric profile of the wavelength of light passing through the sensor. Binding curves were analyzed using ForteBIO software, which performs a global fit according to the 1:1 Langmuir model to obtain the kinetic rate constants for each set of interaction conditions.

The target in assay [2] is HIV-1 integrase catalytic core domain (IN CCD), residues 50-212, F185K, C-terminal His6-tag (HIV-1). Nature of the assay: ELISA; ELISA-based magnetic bead assay: GST-IBD and His6-CCD mixed in solution (25 mM Tris-HCl pH 7.4, 150 mM NaCl, 1 mM MgCl2, 0.05% BSA, 3 h RT), complex captured on Ni-NTA magnetic agarose beads by the His6-tag, detected with anti-GST antibody and alkaline phosphatase conjugate, absorbance read-out (A405); optimal conditions, ratio 1:1. Background: An ELISA detects its analyte on a solid surface through an enzyme-linked reagent.

For assay [3], the target named is HIV-1 IN CCD W131E (residues 50-212, F185K, W131E), C-terminal His6-tag (HIV-1). Described as above.
Where [4] appears, read: at 30 μM for each proton-pump inhibitor, PPI between LEDGF/p75 IBD and IN CCD, read-out: Inhibition (%).
Where [5] appears, read: IN CCD-LEDGF/p75 IBD PPI, magnetic-beads assay, dose response, read-out: IC50.

`Cc1c(OCC(F)(F)F)ccnc1C[S@@+]([O-])c1nc2ccccc2[nH]1` [Dexlansoprazole]: the “effect on the assay system (counterscreen)” value on His6-tagged GST protein is on record as “almost had no effect”. In addition, the anti-cancer activity result in the assay on cancer xenograft models is recorded as “poor”. In assay [1], this compound registered a 50% inhibitory concentration (IC50) of 4.8 µM. Moreover, the inhibition at 30 µM in assay [1] (setting [4]) came to 75.2%; in assay [1] (confirmatory screening, triplicate, 30 μM, read-out: inhibitory rate) it was 90.3%. For the same compound, the “inhibitory activity against IN CCD-LEDGF/p75 IBD interaction (in words)” value in assay [1] (qualitative statement) is on record as “moderate inhibitory activity”. At LEDGF/p75, the Kd stood at 0.33 µM.
Turning to `COc1ccc2nc([S@@+]([O-])Cc3ncc(C)c(OC)c3C)[nH]c2c1` [Esomeprazole], the IC50 in assay [1] (setting [5]) was over 30 µM. Also, the inhibition at 30 µM in assay [1] (setting [4]) came out at 22%.
For `Cc1c(OCC(F)(F)F)ccnc1C[S+]([O-])c1nc2ccccc2[nH]1` (centres unmarked) [Lansoprazole], in assay [1] (setting [4]), the inhibition at 30 µM is -86.2%.
Take `COc1ccc2[nH]c([S+]([O-])Cc3ncc(C)c(OC)c3C)nc2c1` (centres unmarked) [Omeprazole]: the IC50 in assay [1] (setting [5]) is over 30 µM. Moreover, the inhibition at 30 µM in assay [1] (setting [4]) turned out to be 26.2%.
`COc1ccnc(C[S+]([O-])c2nc3ccc(OC(F)F)cc3[nH]2)c1OC` (centres unmarked) [Pantoprazole]: in assay [1] (setting [4]), the inhibition at 30 µM is -23.9%.
Consider `COCCCOc1ccnc(C[S+]([O-])c2nc3ccccc3[nH]2)c1C` (centres unmarked) [Rabeprazole], for which, in assay [1] (setting [5]), the IC50 was over 30 µM. Also, in assay [1] (setting [4]), the inhibition at 30 µM amounted to 14.5%.
Turning to `COc1ccc2[nH]c([S+]([O-])Cc3ncc(C)c(OC)c3C)nc2n1` (centres unmarked) [Tenatoprazole], the IC50 in assay [1] (setting [5]) was over 30 µM. Also, in assay [1] (setting [4]), the inhibition at 30 µM came out at 33.6%.
Turning to “LEDGF/p75 IBD D366N (residues 347-471), N-terminal GST-tag (from UniProt O75475 347-471) (domain or fragment)”, the A405 signal in assay [2] was under 0.01 A405.
As to “LEDGF/p75 integrase binding domain (LEDGF/p75 IBD), residues 347-471, N-terminal GST-tag (from UniProt O75475 347-471) (domain or fragment)”, the A405 signal is under 0.01 A405 in assay [3] and 0.66 A405 in assay [2].
